Test results taken from US11117894B2, “Pyridopyrazine compounds and uses thereof” (CITY OF HOPE, priority 2017, dated 2021).
Values belong to the compound of their own block, whether it stands above or below them.

Key:
A2058 melanoma = assay: MTS cell viability assay, A2058 melanoma cell line; format: cell-based; conditions: 48 h; for Viability % CTL A2058 melanoma (10 μM): Table 4, 10 μM; for Viability (% CTL) at 10 μM A2058 melanoma: Table 2, 10 μM; for IC50: Homo sapiens, MTS; for Viability % CTL A2058 melanoma: Table 1, screened at 10 μM
Procedure: (§1) MTS assays were performed for cell viability. To determine if novel pyridopyrazine derivatives have antitumor activities, compounds were screened at 10 μM final concentration with A2058 melanoma and DU145 prostate cancer cell lines. Compounds #16 and #17 were selected to determine IC50 values against lung cancer cell lines, including A549, DMS273, H69, H513, H2461, DMS114, H358 and H2596. In this assay, cells (5000/well) were seeded in 96-well plates, incubated overnight at 37° C. in 5% CO2, and exposed to 10 μM of compounds or in a dose-dependent manner for 48 h. After 48 h treatment with compounds, MTS dye (20 μL/well) was added to 96-well plates. Viable cell numbers were determined by tetrazolium conversion to its formazan dye. Absorbance was measured at 490 nm using an automated ELISA plate reader. Dimethyl sulfoxide (DMSO) was used as the vehicle control. Each experiment was conducted in triplicate. IC50 values were determined using CalcuSyn software (Biosoft).

DU145 prostate cancer = assay: MTS cell viability assay, DU145 prostate cancer cell line; format: cell-based; conditions: 48 h; for Viability % CTL DU145 prostate (10 μM ): Table 4; for Viability (% CTL) at 10 μM DU145 prostate: Table 2; for IC50: Homo sapiens, DU-145, DU145 prostate cancer, MTS; for Viability % CTL DU145 prostate: Table 1, screened at 10 μM
Procedure: as §1

SMILES: CC(=O)Nc1ccc(Nc2cnc3cc(NC(=O)Nc4cccc(C(F)(F)F)c4)c(C)nc3n2)cc1 [Compound 33, N-(4-((6-Methyl-7-(3-(3-(trifluoromethyl)phenyl)ureido)pyrido[2,3-b]pyrazin-3-yl)amino)phenyl)acetamide]
- Viability % CTL A2058 melanoma (10 μM) (A2058 melanoma): 109 % CTL
- Viability % CTL DU145 prostate (10 μM ) (DU145 prostate cancer): 55 % CTL

SMILES: Cc1nc2nc(Nc3ccccc3)cnc2cc1NC(=O)CN1CCN(C)CC1 [Compound 25E]
- Viability (% CTL) at 10 μM A2058 melanoma (A2058 melanoma): 85 % CTL
- Viability (% CTL) at 10 μM DU145 prostate (DU145 prostate cancer): 83 % CTL

- IC50 (A2058 melanoma): 7.1 µM
- IC50 (DU145 prostate cancer): 9.9 µM
SMILES: CCOC(=O)c1ccc(Nc2cnc3cc(NC(=O)Nc4ccc(F)c(Cl)c4)c(C)nc3n2)cc1 [Compound 28, Ethyl 4-((7-(3-(3-chloro-4-fluorophenyl)ureido)-6-methylpyrido[2,3-b]pyrazin-3-yl)amino)benzoate]
- Viability % CTL A2058 melanoma (10 μM) (A2058 melanoma): 35 % CTL
- Viability % CTL DU145 prostate (10 μM ) (DU145 prostate cancer): 40 % CTL

SMILES: Cc1nc2nc(Sc3ccccc3)cnc2cc1NC(=O)Nc1ccc(F)c([N+](=O)[O-])c1 [Compound 20B]
- Viability % CTL A2058 melanoma (A2058 melanoma): 84 % CTL
- Viability % CTL DU145 prostate (DU145 prostate cancer): 89 % CTL

- IC50 (A2058 melanoma): 1.3 µM
- IC50 (DU145 prostate cancer): 2.4 µM
SMILES: CSc1ccc(NC(=O)Nc2cc3ncc(Nc4ccccc4)nc3nc2C)cc1 [Compound 18, 1-(6-Methyl-3-(phenylamino)pyrido[2,3-b]pyrazin-7-yl)-3-(4-(methylthio)phenyl)urea]
- Viability % CTL A2058 melanoma (10 μM) (A2058 melanoma): 7 % CTL
- Viability % CTL DU145 prostate (10 μM ) (DU145 prostate cancer): 6 % CTL

SMILES: Cc1nc2nc(Sc3ccccc3)cnc2cc1NC(=O)c1ccccc1C(F)(F)F [Compound 16B]
- Viability % CTL A2058 melanoma (A2058 melanoma): 84 % CTL
- Viability % CTL DU145 prostate (DU145 prostate cancer): 120 % CTL

SMILES: Cc1nc2nc(Oc3ccccc3)cnc2cc1NC(=O)Nc1ccccc1 [Compound 57C]
- Viability % CTL A2058 melanoma (A2058 melanoma): 94 % CTL
- Viability % CTL DU145 prostate (DU145 prostate cancer): 126 % CTL

SMILES: CC(=O)Nc1cccc(Nc2cnc3cc(NC(=O)Nc4cccc(C(F)(F)F)c4)c(C)nc3n2)c1 [Compound 31, N-(3-((6-Methyl-7-(3-(3-(trifluoromethyl)phenyl)ureido)pyrido[2,3-b]pyrazin-3-yl)amino)phenyl)acetamide]
- Viability % CTL A2058 melanoma (10 μM) (A2058 melanoma): 119 % CTL
- Viability % CTL DU145 prostate (10 μM ) (DU145 prostate cancer): 62 % CTL

SMILES: Cc1nc2nccnc2cc1NC(=O)c1cccc(C(F)(F)F)c1 [Compound 09A]
- Viability % CTL A2058 melanoma (A2058 melanoma): 74 % CTL
- Viability % CTL DU145 prostate (DU145 prostate cancer): 103 % CTL

SMILES: Cc1nc2nc(Nc3ccccc3)cnc2cc1NC(=O)c1cccc(C(F)(F)F)c1 [Compound 12, N-(6-Methyl-3-(phenylamino)pyrido[2,3-b]pyrazin-7-yl)-3-(trifluoromethyl)benzamide]
- Viability % CTL A2058 melanoma (A2058 melanoma): 69 % CTL
- Viability % CTL DU145 prostate (DU145 prostate cancer): 93 % CTL

SMILES: Cc1nc2nccnc2cc1NC(=O)Nc1ccc(F)c(Cl)c1 [Compound 16A]
- Viability % CTL A2058 melanoma (A2058 melanoma): 96 % CTL
- Viability % CTL DU145 prostate (DU145 prostate cancer): 99 % CTL

SMILES: Cc1ccc(S(=O)(=O)Nc2cc3nccnc3nc2C)cc1 [Compound 19A]
- Viability % CTL A2058 melanoma (A2058 melanoma): 59 % CTL
- Viability % CTL DU145 prostate (DU145 prostate cancer): 122 % CTL

SMILES: Cc1ccc(C(=O)Nc2cc3nccnc3nc2C)cc1 [Compound 08A]
- Viability % CTL A2058 melanoma (A2058 melanoma): 80 % CTL
- Viability % CTL DU145 prostate (DU145 prostate cancer): 96 % CTL

SMILES: Cc1nc2nccnc2cc1NC(=O)Nc1ccccc1 [Compound 15A]
- Viability % CTL A2058 melanoma (A2058 melanoma): 73 % CTL
- Viability % CTL DU145 prostate (DU145 prostate cancer): 104 % CTL

SMILES: Cc1nc2nc(Nc3ccc(C(=O)O)cc3)cnc2cc1NC(=O)Nc1ccc(F)c(Cl)c1 [Compound 35, 4-((7-(3-(3-Chloro-4-fluorophenyl)ureido)-6-methylpyrido[2,3-b]pyrazin-3-yl)amino)benzoic acid]
- Viability % CTL A2058 melanoma (10 μM) (A2058 melanoma): 98 % CTL
- Viability % CTL DU145 prostate (10 μM ) (DU145 prostate cancer): 82 % CTL

SMILES: Cc1nc2nc(Sc3ccccc3)cnc2cc1NC(=O)Nc1ccc(F)c(Cl)c1 [Compound 18B]
- Viability % CTL A2058 melanoma (A2058 melanoma): 83 % CTL
- Viability % CTL DU145 prostate (DU145 prostate cancer): 124 % CTL

SMILES: Cc1nc2nccnc2cc1NC(=O)c1ccccc1 [Compound 06A]
- Viability % CTL A2058 melanoma (A2058 melanoma): 85 % CTL
- Viability % CTL DU145 prostate (DU145 prostate cancer): 94 % CTL

SMILES: Cc1ccc(C(=O)Nc2cc3ncc(Nc4ccccc4)nc3nc2C)cc1 [Compound 9, 4-Methyl-N-(6-methyl-3-(phenylamino)pyrido[2,3-b]pyrazin-7-yl)benzamide]
- Viability (% CTL) at 10 μM A2058 melanoma (A2058 melanoma): 66 % CTL
- Viability (% CTL) at 10 μM DU145 prostate (DU145 prostate cancer): 82 % CTL

SMILES: Cc1nc2nc(Nc3ccccc3)cnc2cc1NC(=O)c1ccc(NC(=O)Nc2ccccc2)cc1 [Compound 14, N-(6-Methyl-3-(phenylamino)pyrido[2,3-b]pyrazin-7-yl)-4-(3-phenylureido)benzamide]
- Viability (% CTL) at 10 μM A2058 melanoma (A2058 melanoma): 75 % CTL
- Viability (% CTL) at 10 μM DU145 prostate (DU145 prostate cancer): 80 % CTL

SMILES: Cc1nc2nccnc2cc1NC(=O)c1ccc([N+](=O)[O-])cc1 [Compound 11A]
- Viability % CTL A2058 melanoma (A2058 melanoma): 87 % CTL
- Viability % CTL DU145 prostate (DU145 prostate cancer): 106 % CTL

SMILES: CCN(CC)CCNCC(=O)Nc1cc2ncc(Nc3ccccc3)nc2nc1C [Compound 27E]
- Viability (% CTL) at 10 μM A2058 melanoma (A2058 melanoma): 85 % CTL
- Viability (% CTL) at 10 μM DU145 prostate (DU145 prostate cancer): 82 % CTL

SMILES: Cc1nc2nc(Nc3ccccc3)cnc2cc1NC(=O)c1ccc([N+](=O)[O-])cc1 [Compound 10, N-(6-Methyl-3-(phenylamino)pyrido[2,3-b]pyrazin-7-yl)-4-nitrobenzamide]
- Viability (% CTL) at 10 μM A2058 melanoma (A2058 melanoma): 86 % CTL
- Viability (% CTL) at 10 μM DU145 prostate (DU145 prostate cancer): 97 % CTL

SMILES: Cc1nc2nccnc2cc1NC(=O)c1ccc(Br)cc1F [Compound 10A]
- Viability % CTL A2058 melanoma (A2058 melanoma): 93 % CTL
- Viability % CTL DU145 prostate (DU145 prostate cancer): 95 % CTL

SMILES: Cc1nc2nccnc2cc1NC(=O)c1ccc(N)cc1 [Compound 12A]
- Viability % CTL A2058 melanoma (A2058 melanoma): 84 % CTL
- Viability % CTL DU145 prostate (DU145 prostate cancer): 99 % CTL

SMILES: CC(=O)Nc1cccc(Nc2cnc3cc(NC(=O)Nc4ccc(F)c(Cl)c4)c(C)nc3n2)c1 [Compound 30, N-(3-((7-(3-(3-Chloro-4-fluorophenyl)ureido)-6-methylpyrido[2,3-b]pyrazin-3-yl)amino)phenyl)acetamide]
- Viability % CTL A2058 melanoma (10 μM) (A2058 melanoma): 118 % CTL
- Viability % CTL DU145 prostate (10 μM ) (DU145 prostate cancer): 64 % CTL

- IC50 (A2058 melanoma): 6.1 µM
- IC50 (DU145 prostate cancer): 12.8 µM
SMILES: CCOC(=O)c1ccc(Nc2cnc3cc(NC(=O)Nc4cccc(C(F)(F)F)c4)c(C)nc3n2)cc1 [Compound 29, Ethyl 4-((6-methyl-7-(3-(3-(trifluoromethyl)phenyl)ureido)pyrido[2,3-b]pyrazin-3-yl)amino)benzoate]
- Viability % CTL A2058 melanoma (10 μM) (A2058 melanoma): 37 % CTL
- Viability % CTL DU145 prostate (10 μM ) (DU145 prostate cancer): 48 % CTL

SMILES: Cc1nc2nc(Sc3ccccc3)cnc2cc1NC(=O)Nc1cccc(C(F)(F)F)c1 [Compound 17B]
- Viability % CTL A2058 melanoma (A2058 melanoma): 56 % CTL
- Viability % CTL DU145 prostate (DU145 prostate cancer): 101 % CTL

SMILES: Cc1nc2nc(Nc3ccccc3)cnc2cc1NC(=O)CN(C)C [Compound 24E]
- Viability (% CTL) at 10 μM A2058 melanoma (A2058 melanoma): 84 % CTL
- Viability (% CTL) at 10 μM DU145 prostate (DU145 prostate cancer): 102 % CTL

SMILES: CSc1ccc(NC(=O)Nc2cc3ncc(Sc4ccccc4)nc3nc2C)cc1 [Compound 19B]
- Viability % CTL A2058 melanoma (A2058 melanoma): 89 % CTL
- Viability % CTL DU145 prostate (DU145 prostate cancer): 113 % CTL

SMILES: Cc1nc2nc(Nc3ccccc3)cnc2cc1NC(=O)Nc1ccc(Cl)cc1Cl [Compound 19, 1-(2,4-Dichlorophenyl)-3-(6-methyl-3-(phenylamino)pyrido[2,3-b]pyrazin-7-yl)urea]
- Viability % CTL A2058 melanoma (10 μM) (A2058 melanoma): 60 % CTL
- Viability % CTL DU145 prostate (10 μM ) (DU145 prostate cancer): 50 % CTL
